Species on record: Rattus norvegicus
Test: Open TG-GATES - Regimen: Single
Type: toxicity, organism-based, Sprague-Dawley
Parameters: regimen Single, gender Male, age 6 weeks
Conditions: in vivo, po, route gavage; for Bas / Eos / Hb / Ht / Lym / MCH / MCHC / MCV / Mono / Neu / Plat / RBC / Ret / WBC: tissue Blood; for KIDNEY_L / KIDNEY_R / KIDNEY_TOTAL: tissue Kidney; for LIVER: tissue Liver; for A/G / ALP / ALT / AST / BUN / CRE / Ca / Cl / DBIL / GLC / IP / K / LDH / Na / PL / RALB / TBIL / TC / TG / TP / gamma-GTP: tissue Plasma
[1] = 30 mg/kg, 3 h, dose level Middle
[2] = 30 mg/kg, 6 h, dose level Middle
[3] = 30 mg/kg, 9 h, dose level Middle
[4] = 30 mg/kg, 24 h, dose level Middle
[5] = 100 mg/kg, 3 h, dose level High
[6] = 100 mg/kg, 6 h, dose level High
[7] = 100 mg/kg, 9 h, dose level High
[8] = 100 mg/kg, 24 h, dose level High

## Cc1ccc2cc3c(ccc4ccccc43)c3c2c1CC3 [3-METHYLCHOLANTHRENE]
[1]
  TERMINAL_BW: 211.6 g
  Bas: 0%
  Eos: 0.8%
  Hb: 12.5 g/dL
  Ht: 38.3%
  Lym: 73.4%
  MCH: 20.6 pg
  MCHC: 32.6%
  MCV: 63.1 fL
  Mono: 3.6%
  Neu: 21.4%
  Plat: 120.7 x10_4/uL
  RBC: 607.4 x10_4/ul
  Ret: 10.1%
  WBC: 93.9 x10_2/uL
  KIDNEY_L: 0.9 g
  KIDNEY_R: 0.9 g
  KIDNEY_TOTAL: 1.8 g
  LIVER: 9.5 g
  A/G: 1
  ALP: 1634.6 IU/L
  ALT: 41.6 IU/L
  AST: 76 IU/L
  BUN: 12.6 mg/dL
  CRE: 0.1 mg/dL
  Ca: 10.9 mg/dL
  Cl: 103.3 meq/L
  DBIL: 0 mg/dL
  GLC: 177.4 mg/dL
  IP: 8.2 mg/dL
  K: 4.2 meq/L
  LDH: 224.4 IU/L
  Na: 139.9 meq/L
  PL: 185.8 mg/dL
  RALB: 2.9 g/dL
  TBIL: 0.008 mg/dL
  TC: 87.2 mg/dL
  TG: 201.5 mg/dL
  TP: 5.7 g/dL
  gamma-GTP: 0.6 IU/L
[2]
  TERMINAL_BW: 206.2 g
  Bas: 0%
  Eos: 0%
  Hb: 12.9 g/dL
  Ht: 39.5%
  Lym: 77.6%
  MCH: 20.7 pg
  MCHC: 32.7%
  MCV: 63.5 fL
  Mono: 3.6%
  Neu: 17.2%
  Plat: 124.3 x10_4/uL
  RBC: 622.8 x10_4/ul
  Ret: 9%
  WBC: 124.3 x10_2/uL
  KIDNEY_L: 0.9 g
  KIDNEY_R: 0.9 g
  KIDNEY_TOTAL: 1.8 g
  LIVER: 9 g
  A/G: 1
  ALP: 1407.6 IU/L
  ALT: 35 IU/L
  AST: 66 IU/L
  BUN: 9 mg/dL
  CRE: 0.1 mg/dL
  Ca: 10.7 mg/dL
  Cl: 104.4 meq/L
  DBIL: 0 mg/dL
  GLC: 169 mg/dL
  IP: 8.9 mg/dL
  K: 4.3 meq/L
  LDH: 174.6 IU/L
  Na: 140.3 meq/L
  PL: 158.2 mg/dL
  RALB: 2.9 g/dL
  TBIL: 0.008 mg/dL
  TC: 80.8 mg/dL
  TG: 101.9 mg/dL
  TP: 5.7 g/dL
  gamma-GTP: 0.7 IU/L
[3]
  TERMINAL_BW: 206.5 g
  Bas: 0%
  Eos: 0.6%
  Hb: 12.7 g/dL
  Ht: 39.4%
  Lym: 73.2%
  MCH: 20.7 pg
  MCHC: 32.2%
  MCV: 64.3 fL
  Mono: 3.6%
  Neu: 21.6%
  Plat: 127.5 x10_4/uL
  RBC: 612.8 x10_4/ul
  Ret: 9.1%
  WBC: 119.4 x10_2/uL
  KIDNEY_L: 0.9 g
  KIDNEY_R: 0.9 g
  KIDNEY_TOTAL: 1.8 g
  LIVER: 8.6 g
  A/G: 1
  ALP: 1625.8 IU/L
  ALT: 34.6 IU/L
  AST: 64.2 IU/L
  BUN: 10.4 mg/dL
  CRE: 0.1 mg/dL
  Ca: 10.5 mg/dL
  Cl: 103.9 meq/L
  DBIL: 0.002 mg/dL
  GLC: 178.4 mg/dL
  IP: 10.2 mg/dL
  K: 4.5 meq/L
  LDH: 153.6 IU/L
  Na: 141.7 meq/L
  PL: 160 mg/dL
  RALB: 2.8 g/dL
  TBIL: 0.004 mg/dL
  TC: 84 mg/dL
  TG: 109.2 mg/dL
  TP: 5.6 g/dL
  gamma-GTP: 0.8 IU/L
[4]
  TERMINAL_BW: 216.2 g
  Bas: 0%
  Eos: 0.2%
  Hb: 12.6 g/dL
  Ht: 38.1%
  Lym: 80.6%
  MCH: 20.6 pg
  MCHC: 32.9%
  MCV: 62.6 fL
  Mono: 3.8%
  Neu: 14.2%
  Plat: 127.8 x10_4/uL
  RBC: 608 x10_4/ul
  Ret: 8%
  WBC: 107.4 x10_2/uL
  KIDNEY_L: 0.9 g
  KIDNEY_R: 0.9 g
  KIDNEY_TOTAL: 1.9 g
  LIVER: 11 g
  A/G: 1
  ALP: 2072.4 IU/L
  ALT: 41.2 IU/L
  AST: 77.2 IU/L
  BUN: 13.7 mg/dL
  CRE: 0.1 mg/dL
  Ca: 10.9 mg/dL
  Cl: 103.4 meq/L
  DBIL: 0 mg/dL
  GLC: 173.8 mg/dL
  IP: 7.1 mg/dL
  K: 4.7 meq/L
  LDH: 281.4 IU/L
  Na: 141.5 meq/L
  PL: 165.2 mg/dL
  RALB: 2.8 g/dL
  TBIL: 0.004 mg/dL
  TC: 82.6 mg/dL
  TG: 152.7 mg/dL
  TP: 5.5 g/dL
  gamma-GTP: 0.9 IU/L
[5]
  TERMINAL_BW: 211 g
  Bas: 0%
  Eos: 1%
  Hb: 12.4 g/dL
  Ht: 38.7%
  Lym: 74.4%
  MCH: 20.1 pg
  MCHC: 32.2%
  MCV: 62.6 fL
  Mono: 3.2%
  Neu: 21%
  Plat: 125.2 x10_4/uL
  RBC: 618.4 x10_4/ul
  Ret: 9.2%
  WBC: 117.6 x10_2/uL
  KIDNEY_L: 0.9 g
  KIDNEY_R: 0.9 g
  KIDNEY_TOTAL: 1.8 g
  LIVER: 9.5 g
  A/G: 1
  ALP: 1507 IU/L
  ALT: 44.4 IU/L
  AST: 77.4 IU/L
  BUN: 12.9 mg/dL
  CRE: 0.1 mg/dL
  Ca: 10.8 mg/dL
  Cl: 101.9 meq/L
  DBIL: 0.002 mg/dL
  GLC: 180.4 mg/dL
  IP: 8.7 mg/dL
  K: 4.3 meq/L
  LDH: 276.8 IU/L
  Na: 139.4 meq/L
  PL: 178.2 mg/dL
  RALB: 2.9 g/dL
  TBIL: 0.012 mg/dL
  TC: 89.8 mg/dL
  TG: 164.2 mg/dL
  TP: 5.7 g/dL
  gamma-GTP: 0.7 IU/L
[6]
  TERMINAL_BW: 206.7 g
  Bas: 0%
  Eos: 0.2%
  Hb: 12.6 g/dL
  Ht: 38.9%
  Lym: 75.6%
  MCH: 20.6 pg
  MCHC: 32.4%
  MCV: 63.6 fL
  Mono: 4.2%
  Neu: 18.8%
  Plat: 136.5 x10_4/uL
  RBC: 612 x10_4/ul
  Ret: 9%
  WBC: 135.9 x10_2/uL
  KIDNEY_L: 0.9 g
  KIDNEY_R: 0.9 g
  KIDNEY_TOTAL: 1.7 g
  LIVER: 8.9 g
  A/G: 1
  ALP: 1605.4 IU/L
  ALT: 37.2 IU/L
  AST: 71.4 IU/L
  BUN: 8.3 mg/dL
  CRE: 0.1 mg/dL
  Ca: 10.6 mg/dL
  Cl: 104.8 meq/L
  DBIL: 0.002 mg/dL
  GLC: 175.4 mg/dL
  IP: 9.2 mg/dL
  K: 4.3 meq/L
  LDH: 203.2 IU/L
  Na: 141 meq/L
  PL: 165.6 mg/dL
  RALB: 2.9 g/dL
  TBIL: 0.022 mg/dL
  TC: 85.6 mg/dL
  TG: 83.5 mg/dL
  TP: 5.7 g/dL
  gamma-GTP: 0.8 IU/L
[7]
  TERMINAL_BW: 206.7 g
  Bas: 0%
  Eos: 0.6%
  Hb: 12.7 g/dL
  Ht: 39%
  Lym: 75.8%
  MCH: 20.6 pg
  MCHC: 32.4%
  MCV: 63.6 fL
  Mono: 3.4%
  Neu: 19.4%
  Plat: 125.7 x10_4/uL
  RBC: 613.8 x10_4/ul
  Ret: 8.6%
  WBC: 108.2 x10_2/uL
  KIDNEY_L: 0.9 g
  KIDNEY_R: 0.9 g
  KIDNEY_TOTAL: 1.8 g
  LIVER: 9 g
  A/G: 1
  ALP: 1396.4 IU/L
  ALT: 34.4 IU/L
  AST: 70.4 IU/L
  BUN: 9.8 mg/dL
  CRE: 0.1 mg/dL
  Ca: 10.6 mg/dL
  Cl: 104 meq/L
  DBIL: 0.002 mg/dL
  GLC: 179.4 mg/dL
  IP: 10.6 mg/dL
  K: 4.6 meq/L
  LDH: 248.8 IU/L
  Na: 142.5 meq/L
  PL: 150.4 mg/dL
  RALB: 2.8 g/dL
  TBIL: 0.004 mg/dL
  TC: 79.2 mg/dL
  TG: 95 mg/dL
  TP: 5.6 g/dL
  gamma-GTP: 0.6 IU/L
[8]
  TERMINAL_BW: 218 g
  Bas: 0%
  Eos: 0%
  Hb: 12.8 g/dL
  Ht: 39.2%
  Lym: 81.2%
  MCH: 20 pg
  MCHC: 32.6%
  MCV: 61.6 fL
  Mono: 3%
  Neu: 14.6%
  Plat: 124.3 x10_4/uL
  RBC: 636.8 x10_4/ul
  Ret: 8.1%
  WBC: 127.1 x10_2/uL
  KIDNEY_L: 0.9 g
  KIDNEY_R: 0.9 g
  KIDNEY_TOTAL: 1.9 g
  LIVER: 11.2 g
  A/G: 1
  ALP: 1595.4 IU/L
  ALT: 38.6 IU/L
  AST: 69.4 IU/L
  BUN: 16.7 mg/dL
  CRE: 0.2 mg/dL
  Ca: 11 mg/dL
  Cl: 103.1 meq/L
  DBIL: 0.002 mg/dL
  GLC: 171.4 mg/dL
  IP: 7.4 mg/dL
  K: 4.7 meq/L
  LDH: 188.8 IU/L
  Na: 141.6 meq/L
  PL: 181.2 mg/dL
  RALB: 2.8 g/dL
  TBIL: 0 mg/dL
  TC: 92 mg/dL
  TG: 209.4 mg/dL
  TP: 5.5 g/dL
  gamma-GTP: 0.9 IU/L

From ChEMBL document CHEMBL3885861, “Open TG-GATES”
